The text below walks through data of patent US5840684A, “Glycopeptide antibiotic derivatives” (Eli Lilly and Company, priority 1995, dated 1998).

In brackets after ≈: the same amount, converted by molar mass.

The subject of assay [1] is Staphylococcus haemolyticus 105. The assay can be described thus: broth micro-dilution MIC. Type of assay: cell-based. On the procedure: (§1) The formula I compounds have in vitro and in vivo activity against Gram-positive pathogenic bacteria. The MIC's were determined using a standard broth micro-dilution assay.
A general note: Dilution methods test growth across graded concentrations, often in twofold steps.

Assay [2] concerns Staphylococcus haemolyticus 415. The assay can be described thus: broth micro-dilution MIC. Type of assay: cell-based. On the procedure:
as §1

The test system of another assay is Entercoccus faecium 2041. The assay can be described thus: broth micro-dilution MIC. The assay is classed as cell-based. Particulars: Entercoccus faecium 2041. On the procedure: as §1
For assay [3], the system named is Enterococcus gallinarum 245. The assay is described as follows: broth micro-dilution MIC. The assay is classed as cell-based. The conditions noted are these: Enterococcus gallinarum 245. On the procedure:
as §1

The subject of a further assay is Entercoccus faecium 180. The assay is described as follows: broth micro-dilution MIC. The assay is classed as cell-based. Particulars: Entercoccus faecium 180. On the procedure:
as §1

The test system of assay [4] is Streptococcus pneumoniae P1. The assay is described as follows: broth micro-dilution MIC. The assay is classed as cell-based. As for the experimental part: as §1
For assay [5], the system named is vancomycin-resistant enterococci. The assay can be described thus: broth micro-dilution, mean geometric MIC. Type of assay: cell-based, Enterococcus faecium and Enterococcus faecalis. Particulars: enterococci, 24-hour incubation.
The subject of assay [6] is Staphylococcus aureus 489. The assay can be described thus: broth micro-dilution MIC. The assay is classed as cell-based. On the procedure:
(§2) The MIC's were determined using a standard broth micro-dilution assay.

Assay [7] concerns Staphylococcus aureus SA1199. The assay can be described thus: broth micro-dilution MIC. Type of assay: cell-based. On the procedure:
as §2

The subject of the next assay is Entercoccus faecium 276. The assay is described as follows: broth micro-dilution MIC. The assay is classed as cell-based. As for the experimental part: as §2
Assay [8] concerns Streptococcus pyogenes C203. The assay can be described thus: broth micro-dilution MIC. The assay is classed as cell-based. On the procedure: as §2
In assay [9] the test system is Entercoccus faecium 180-1. The assay can be described thus: broth micro-dilution MIC. The assay is classed as cell-based. As for the experimental part:
as §2

Assay [10] has as its system Staphylococcus aureus 447. The assay can be described thus: broth micro-dilution MIC. Type of assay: cell-based. As for the experimental part: as §2
For assay [11], the system named is Staphylococcus aureus SA1199B. The assay is classed as cell-based. On the procedure:
as §2

The subject of assay [12] is Staphylococcus aureus S13E. Type of assay: cell-based. On the procedure:
as §2

Assay [13] relates to vancomycin-susceptible enterococci. The assay can be described thus: broth micro-dilution, mean geometric MIC. The assay is classed as cell-based, Enterococcus faecium and Enterococcus faecalis. The conditions noted are these: enterococci, 24-hour incubation.
Assay [14] relates to Staphylococcus aureus SA1199A. The assay is described as follows: broth micro-dilution MIC. Type of assay: cell-based. On the procedure: as §2
Assay [15] concerns Staphylococcus aureus 446. The assay can be described thus: broth micro-dilution MIC. The assay is classed as cell-based. As for the experimental part: as §2
Assay [16] has as its system Staphylococcus aureus X778. The assay can be described thus: broth micro-dilution MIC. The assay is classed as cell-based. On the procedure:
as §2

What is called MIC is the lowest concentration that inhibits growth of the organism. Low values mean a more susceptible organism, high ones a less susceptible organism. `CNC(CC(C)C)C(=O)NC1C(=O)NC(CC(N)=O)C(=O)NC2C(=O)NC3C(=O)NC(C(=O)NC(C(=O)O)c4cc(O)cc(O)c4-c4cc3ccc4O)C(OC3CC(C)(N)C(O)C(C)O3)c3ccc(c(Cl)c3)Oc3cc2cc(c3OC2OC(CO)C(O)C(O)C2OC2CC(C)(NCc3ccc(C)c(C)c3)C(O)C(C)O2)Oc2ccc(cc2Cl)C1O` (stereo not shown) [Compound 76]: the MIC in assay [1] was 2 µg/mL (≈ 1.17 µM); in [2], 4 µg/mL (≈ 2.34 µM); with Entercoccus faecium 2041 it was at most 0.06 µg/mL; in [3], 4 µg/mL (≈ 2.34 µM); with Entercoccus faecium 180, 0.5 µg/mL (≈ 0.292 µM); in assay [4], at most 0.06 µg/mL. Moreover, the minimum inhibitory concentration (MIC) is at most 0.06 µg/mL in [6]; at most 0.06 µg/mL in assay [7]; at most 0.06 µg/mL in the assay with Entercoccus faecium 276; at most 0.06 µg/mL in assay [8]; at most 0.06 µg/mL in [9]; 0.5 µg/mL (≈ 0.292 µM) in assay [10]. Moreover, the “mean geometric MIC, Vancomycin Resistant Strains” value in assay [5] came to 8.0 µg/mL.
As to `CNC(CC(C)C)C(=O)NC1C(=O)NC(CC(N)=O)C(=O)NC2C(=O)NC3C(=O)NC(C(=O)NC(C(=O)O)c4cc(O)cc(O)c4-c4cc3ccc4O)C(OC3CC(C)(N)C(O)C(C)O3)c3ccc(c(Cl)c3)Oc3cc2cc(c3OC2OC(CO)C(O)C(O)C2OC2CC(C)(NCC3CCC(COCc4ccccc4)CC3)C(O)C(C)O2)Oc2ccc(cc2Cl)C1O` (stereo not shown) [Compound 239], the minimal inhibitory concentration (MIC) in assay [11] is 0.5 µg/mL (≈ 0.276 µM); in assay [12], 0.5 µg/mL (≈ 0.276 µM); in assay [1], 1 µg/mL (≈ 0.553 µM); in assay [2], 1 µg/mL (≈ 0.553 µM); against Entercoccus faecium 2041, at most 0.06 µg/mL; in [3], 1 µg/mL (≈ 0.553 µM). The minimal inhibitory concentration (MIC) against Entercoccus faecium 180 was at most 0.06 µg/mL; in assay [4] it was at most 0.06 µg/mL; in assay [6], 0.5 µg/mL (≈ 0.276 µM); in assay [7] it was 0.5 µg/mL (≈ 0.276 µM); in assay [14] it was at most 0.06 µg/mL; in assay [9] it was at most 0.06 µg/mL. Moreover, the MIC came to 1 µg/mL (≈ 0.553 µM) in assay [15] and 0.5 µg/mL (≈ 0.276 µM) in assay [10]. Besides, in assay [13], the “mean geometric MIC, Vancomycin Sensitive Strains” value was determined as 0.095 µg/mL. In assay [5], the “mean geometric MIC, Vancomycin Resistant Strains” value was 2.8 µg/mL.
Consider `CNC(CC(C)C)C(=O)NC1C(=O)NC(CC(N)=O)C(=O)NC2C(=O)NC3C(=O)NC(C(=O)NC(C(=O)O)c4cc(O)cc(O)c4-c4cc3ccc4O)C(OC3CC(C)(N)C(O)C(C)O3)c3ccc(c(Cl)c3)Oc3cc2cc(c3OC2OC(CO)C(O)C(O)C2OC2CC(C)(NCc3ccc(Oc4ccc(Cl)cc4)cc3)C(O)C(C)O2)Oc2ccc(cc2Cl)C1O` (stereo not shown) [Compound 240], for which the MIC in assay [12] is 0.5 µg/mL (≈ 0.276 µM); in assay [1], 1 µg/mL (≈ 0.553 µM); in assay [2], 2 µg/mL (≈ 1.11 µM); in the assay with Entercoccus faecium 2041 it was at most 0.06 µg/mL; in assay [3], 2 µg/mL (≈ 1.11 µM); in the assay on Entercoccus faecium 180, at most 0.06 µg/mL. In addition, the minimal inhibitory concentration (MIC) in assay [4] was at most 0.06 µg/mL; in assay [6] it was 1 µg/mL (≈ 0.553 µM); in [7] it was 0.5 µg/mL (≈ 0.276 µM); with Entercoccus faecium 276 it was 0.5 µg/mL (≈ 0.276 µM); in [14], at most 0.06 µg/mL; in [9], at most 0.06 µg/mL. Moreover, the minimum inhibitory concentration (MIC) in assay [16] turned out to be 0.5 µg/mL (≈ 0.276 µM); in assay [15], 1 µg/mL (≈ 0.553 µM); in assay [10], 0.5 µg/mL (≈ 0.276 µM). Further, the “mean geometric MIC, Vancomycin Sensitive Strains” value in [13] was found to be 0.055 µg/mL. In addition, the “mean geometric MIC, Vancomycin Resistant Strains” value in assay [5] stood at 1.19 µg/mL.
